The values that follow come from patent US20070134744A1, “Epothilone resistant cell lines” (priority 2000, published 2007).

Where only a bound is given, the exact number is not on record here.

In one test the test system is EA10 cells. The experiment in a line: MTS growth inhibition assay. In kind it is cell-based. The procedure:
(§1) Growth inhibition may be analyzed using conventional methods, for example a MTS assay (PROMEGA, Wis.) may be used. In this assay approximately 4000 cells per well are seeded in 96 well plates in MEM supplemented with 10% fetal calf serum and incubated at 37° C. in 5.0% CO2. After 24 hours, dilutions of drug (concentration range used is between 1 nM and 1000 nM) are added and cells are allowed to incubate with drug for an additional 72 hours. The MTS reagent mixed with PMS (MTS:PMS 20:1 according to manufacturer's instructions) is then added and absorbance quantitated using a Thermomax microplate reader system according to conventional methods (Molecular Devices, Sunnyvale, Calif.). […] Six assays per drug per plate are performed.
(§2) Thus, at least two potential mechanisms of epothilone A resistance may exist—a lower resistance mechanism that is cross-resistant to TAXOL® and a higher, epothilone A specific resistance mechanism.
Background: Formazan colour is commonly taken as a measure of viable cells.

In the next test the test system is EA150 cells. Kind of test: MTS growth inhibition assay. The class given is cell-based. How it is done:
as §1, §2

For a further test, the system named is EA20 cells. The experiment in a line: MTS growth inhibition assay. In kind it is cell-based. The procedure:
as §1, §2

The subject of another test is EA60 cells. The experiment in a line: MTS growth inhibition assay. The class given is cell-based. How it is done:
as §1, §2

The subject of a further test is MDA-MB-435 cells. Kind of test: MTS growth inhibition assay. Particulars: MTS, 72 hours drug, Table 1. In kind it is cell-based. The procedure: as §1, §2
Another test deals with EA40 cells. The experiment in a line: MTS growth inhibition assay. Particulars: EA40 cells, MTS, 72 hours drug; Table 1. In kind it is cell-based. The procedure: as §1, with “performed. […]” for “performed.”
As such, epothilone resistant cells would have some degree of cross-resistance to other P-gp substrates that could be reversed by P-gp inhibitors. To investigate this possibility, the cytotoxicity of the P-gp substrates, vincristine, doxorubicine and vinblastine is determined against epothilone A resistant cells using the MTS assay. […] When EA20 and resistant MDA/T0.3 cells are incubated with TAXOL® or epothilone A in the presence of [3′-Desoxy-3′-oxo-MeBmt]^1-[Val]^2-Ciclosporin (PSC-833; a P-gp inhibitor which is disclosed in U.S. Pat. No. 5,525,590), the resistance of MDA/T0.3 cells to TAXOL® is reversed but no effect on the resistance of EA20 to epothilone A is observed.

A further test has as its system KB-8511 cells. The class given is cell-based, human. The procedure: (§3) Data in Table 4 are gathered according to the following methods: Cells (1×10^3) are seeded in 96-well plates and allowed to adhere for 24 hrs. Compounds are then added as two-fold serial dilutions and incubation continued for an additional 72 hrs. Cell numbers at the beginning and at the end of the experiment are estimated by methylene blue staining of cellular protein mass according to conventional methods. The net mass increase of vehicle-treated cells is set as 100% growth. The IC50 is determined as the drug concentration that leads to half-maximal growth inhibition compared to the control. The resistance factor (RF) for a particular drug is calculated by dividing the IC50 determined on the resistant cell line by that determined on the parental KB-31 cells. Data are presented as average±standard deviation (SD) of three separate experiments, except na=not applicable (n<3). Colchicine-selected KB-8511 cells overexpressing P-glycoprotein served as a reference for the classical multi-drug-resistant phenotype.

Another test deals with 297/C5/0 cells. The class given is cell-based, human. Particulars: 297/C5/0 (EpoA selected), 72 hrs, average of three experiments. How it is done: (§4) Anti-proliferative assays are performed basically as described (Meyer et al., Int. J. Cancer 43:851 (1989)). Briefly, cells are seeded at 1.5×10^3 cells/well into 96-well microtiter plates and allowed to adhere by incubation overnight. Compounds are added in serial dilutions on day 1. The plates are then incubated for an additional 3 days, after which the cells are fixed with 3.3% v/v glutaraldehyde, washed with water and stained with 0.05% w/v methylene blue according to conventional methods. After washing, the dye is eluted with 3% HCl and the optical density measured at 665 nm with a SpectraMax Plus (Molecular Devices, Sunnyvale, Calif.) according to manufacturers instructions. IC50 values are determined by mathematical curve-fitting using the SoftPro2.6.1 program (Molecular Devices, Sunnyvale, Calif.) using the formula (OD treated−OD start)/(OD control−OD start)×100. […] IC50 determinations with the cell line 298/D4/40 are performed in the presence of 40 nM epothilone A.
as §3

Another test deals with 298/D4/40 cells. The class given is cell-based, human. Particulars: 298/D4/40 (EpoA selected), 72 hrs, in the presence of 40 nM epothilone A. How it is done:
as §4, §3

Another test relates to 315/sc5.9 cells. The class given is cell-based, human. The procedure:
as §4, §3

The test system of another test is KB-31 cells. Kind of test: In vitro cell growth inhibition assay (methylene blue). In kind it is cell-based, human. Particulars: read-out: concentration half-maximally inhibiting proliferation. The procedure: as §4
The epothilone resistant cell lines, EpoA320-80C, EpoA320/ND, 298/D4/40, 297/C5/0 and 315/sc5.9 are generated as disclosed above. […] A subclone, 298/D4/40, is adapted to grow in the presence of 40 nM epothilone A administered twice weekly (i.e. at every medium change). […]

In the case of `C/C(=C\c1csc(C)n1)[C@@H]1C[C@@H]2O[C@@H]2CCC[C@H](C)[C@H](O)[C@@H](C)C(=O)C(C)(C)[C@@H](O)CC(=O)O1` [Epothilone A, epothilone A], the “increase in IC50 over MDA-MB-435 cells” value in the test with EA10 cells is on record as 5 fold; with EA150 cells, above 100 fold; with EA20 cells, 7 fold; in the test on EA60 cells, 15 fold. In addition, the IC50 with EA10 cells (MTS, 72 hours drug, Table 1) is 18 ± 3.8 nM; in the test on EA150 cells (MTS, 72 hours drug, Table 1) it was above 500 nM; in the test with EA20 cells (MTS, 72 hours drug, Table 1), 28 ± 3 nM; in the test on EA60 cells (MTS, 72 hours drug, Table 1), 82 ± 1.5 nM; in the test with MDA-MB-435 cells, 4 ± 1.8 nM; with EA40 cells it was 36 ± 2 nM. Further, the IC50 in the test on KB-31 cells is 3.2 nM. Also, the “RF (resistance factor: IC50 resistant cell line / IC50 parental KB-31)” value with KB-8511 cells (KB-8511 (Colch selected), 72 hrs, average of three experiments) worked out at 0.7; in the test on 297/C5/0 cells, 44.7; with 298/D4/40 cells, 71.4; with 315/sc5.9 cells (315/sc5.9 (EpoB selected), 72 hrs, average of three experiments) it was 1.2. Further, the entries for the “resistance profile in words” value in the test on KB-8511 cells (KB-8511 vs parental KB-31) and in the test on 315/sc5.9 cells (315/sc5.9 vs parental KB-31) were “retain full activity” and “marginal cross-resistance”, respectively.
